ChEMBL document CHEMBL4190285, “Borapetoside E, a Clerodane Diterpenoid Extracted from Tinospora crispa, Improves Hyperglycemia and Hyperlipidemia in High-Fat-Diet-Induced Type 2 Diabetes Mice” (J Nat Prod, 2017)
Calls of active or inactive are those of the source. The rule behind the calls is not given here.

What was measured:
Mus musculus [1] = experiment: Down regulation of LXRalpha mRNA expression in HFD-induced obese C57BL/6J mouse liver at 20 to 40 mg/kg, ip administered twice daily for 2.5 days measured at 2 hrs post last dose by RT-PCR analysis; type: functional, organism-based
Mus musculus [2] = experiment: Antihyperglycemic activity in high fat diet-induced obese C57BL/6J mouse assessed as reduction in blood glucose level at 20 to 40 mg/kg, ip administered twice daily for 2.5 days measured after 2 hrs post last dose; type: functional, organism-based
Mus musculus [3] = experiment: Antihyperglycemic activity in high fat diet-induced obese C57BL/6J mouse assessed as reduction in blood glucose level at 40 mg/kg, ip administered as single dose measured after 36 hrs; type: functional, organism-based
Mus musculus [4] = experiment: Improvement in insulin resistance in high fat diet-induced obese C57BL/6J mouse assessed as increase in phosphorylated AKT ser473 level in liver at 40 mg/kg, ip administered twice daily for 2.5 days measured at 2 hrs post last dose by Western blot analysis; type: functional, organism-based
Mus musculus [5] = experiment: Improvement in insulin resistance in high fat diet-induced obese C57BL/6J mouse assessed as increase in phosphorylated GSK3beta expression in skeletal muscle at 40 mg/kg, ip administered twice daily for 2.5 days measured at 2 hrs post last dose by Western blot analysis; type: functional, organism-based
Mus musculus [6] = experiment: Improvement in insulin resistance in high fat diet-induced obese C57BL/6J mouse assessed as increase in insulin sensitivity index at 40 mg/kg, ip pretreated twice daily for 2.5 days followed by insulin challenge at 2 hrs post last dose measured up to 2 hrs by ITT; type: functional, organism-based
Mus musculus [7] = experiment: Antihyperlipidemic activity in high fat diet-induced obese C57BL/6J mouse assessed as serum triglyceride levels at 20 mg/kg, ip administered twice daily for 2.5 days measured at 2 hrs post last dose (reference value: 1.31 +/- 0.48 mmol/L); type: functional
Mus musculus [8] = experiment: Antihyperlipidemic activity in high fat diet-induced obese C57BL/6J mouse assessed as serum LDL-C levels at 20 mg/kg, ip administered twice daily for 2.5 days measured at 2 hrs post last dose (reference value: 2.54 +/- 0.87 mmol/L); type: functional
Mus musculus [9] = experiment: Antihyperlipidemic activity in high fat diet-induced obese C57BL/6J mouse assessed as serum HDL-C levels at 20 mg/kg, ip administered twice daily for 2.5 days measured at 2 hrs post last dose (reference value: 1.82 +/- 0.58 mmol/L); type: functional
Mus musculus [10] = experiment: Antihyperlipidemic activity in high fat diet-induced obese C57BL/6J mouse assessed as serum total cholesterol levels at 20 mg/kg, ip administered twice daily for 2.5 days measured at 2 hrs post last dose (reference value: 4.56 +/- 1.01 mmol/L); type: functional
Mus musculus [11] = experiment: Antihyperlipidemic activity in high fat diet-induced obese C57BL/6J mouse assessed as serum free fatty acid levels at 20 mg/kg, ip administered twice daily for 2.5 days measured at 2 hrs post last dose (reference value: 1.41 +/- 0.3 mmol/L); type: functional
Mus musculus [12] = experiment: Antihyperlipidemic activity in high fat diet-induced obese C57BL/6J mouse assessed as serum LDL-C levels at 40 mg/kg, ip administered twice daily for 2.5 days measured at 2 hrs post last dose (reference value: 2.54 +/- 0.87 mmol/L); type: functional
Mus musculus [13] = experiment: Antihyperlipidemic activity in high fat diet-induced obese C57BL/6J mouse assessed as serum free fatty acid levels at 40 mg/kg, ip administered twice daily for 2.5 days measured at 2 hrs post last dose (reference value: 1.41 +/- 0.3 mmol/L); type: functional
Mus musculus [14] = experiment: Antihyperlipidemic activity in high fat diet-induced obese C57BL/6J mouse assessed as reduction in liver triglyceride levels at 20 to 40 mg/kg, ip administered twice daily for 2.5 days measured at 2 hrs post last dose; type: functional, organism-based
Mus musculus [15] = experiment: Antihyperlipidemic activity in high fat diet-induced obese C57BL/6J mouse assessed as reduction in liver cholesterol levels at 20 to 40 mg/kg, ip administered twice daily for 2.5 days measured at 2 hrs post last dose; type: functional, organism-based
Mus musculus [16] = experiment: Antihyperlipidemic activity in high fat diet-induced obese C57BL/6J mouse assessed as reduction in liver free fatty acid level at 20 to 40 mg/kg, ip administered twice daily for 2.5 days measured at 2 hrs post last dose; type: functional, organism-based
Mus musculus [17] = experiment: Antihyperlipidemic activity in high fat diet-induced obese C57BL/6J mouse assessed as reduction in free fatty acid level in epididymis adipose tissue at 20 to 40 mg/kg, ip administered twice daily for 2.5 days measured at 2 hrs post last dose; type: functional, organism-based
Mus musculus [18] = experiment: Toxicity in HFFD-induced obese C57BL/6J mouse assessed as effect on food intake at 40 mg/kg, ip administered twice daily for 2.5 days followed by once daily dosing up to 16 days measured daily during compound dosing; type: organism-based; settings: in vivo
Mus musculus [19] = experiment: Antiobesity activity in HFFD-induced obese C57BL/6J mouse assessed as reduction in hepatic steatosis at 40 mg/kg, ip administered twice daily for 2.5 days followed by once daily dosing up to 16 days measured at 2 hrs post last dose by Oil red O staining based histological analysis; type: functional, organism-based
Mus musculus [20] = experiment: Antiobesity activity in HFFD-induced obese C57BL/6J mouse assessed as reduction in size of adipocytes at 40 mg/kg, ip administered twice daily for 2.5 days followed by once daily dosing up to 16 days measured at 2 hrs post last dose by hematoxylin-eosin staining based histological analysis; type: functional, organism-based
Mus musculus [21] = experiment: Increase in carbon dioxide production in HFD-induced obese C57BL/6J mouse at 40 mg/kg, ip administered twice daily for 2.5 days measured up to 12.6 hrs under dark condition; type: functional, organism-based
Mus musculus [22] = experiment: Down regulation of SREBP1 mRNA expression in HFD-induced obese C57BL/6J mouse liver at 20 to 40 mg/kg, ip administered twice daily for 2.5 days measured at 2 hrs post last dose by RT-PCR analysis; type: functional, organism-based
Mus musculus [23] = experiment: Down regulation of SREBP2 mRNA expression in HFD-induced obese C57BL/6J mouse adipose tissue at 20 to 40 mg/kg, ip administered twice daily for 2.5 days measured at 2 hrs post last dose by RT-PCR analysis; type: functional, organism-based
Mus musculus [24] = experiment: Down regulation of FAS mRNA expression in HFD-induced obese C57BL/6J mouse liver at 20 to 40 mg/kg, ip administered twice daily for 2.5 days measured at 2 hrs post last dose by RT-PCR analysis; type: functional, organism-based
Mus musculus [25] = experiment: Down regulation of ACL1 mRNA expression in HFD-induced obese C57BL/6J mouse adipose tissue at 20 to 40 mg/kg, ip administered twice daily for 2.5 days measured at 2 hrs post last dose by RT-PCR analysis; type: functional, organism-based
Mus musculus [26] = experiment: Improvement in serum AST level in HFFD-induced obese C57BL/6J mouse assessed as serum AST level at 40 mg/kg, ip administered twice daily for 2.5 days followed by once daily dosing up to 16 days measured at 2 hrs post last dose (reference value: 15.14 +/- 3.84 IU/L); type: functional
Mus musculus [27] = experiment: Toxicity in HFFD-induced obese C57BL/6J mouse assessed as serum creatinine level at 40 mg/kg, ip administered twice daily for 2.5 days followed by once daily dosing up to 16 days measured at 2 hrs post last dose (reference value: 100.67 +/- 17.2 umol/L); type: organism-based; settings: in vivo

## COC(=O)C1=CCC[C@H]2[C@](C)(C[C@@H](O[C@@H]3O[C@H](CO)[C@@H](O)[C@H](O)[C@H]3O)c3ccoc3)[C@H]3C[C@H](OC3=O)[C@@]12C
Mus musculus [1]
  Activity: Active
Mus musculus [2]
  Activity: Active
Mus musculus [3]
  Activity: Active
Mus musculus [4]
  Activity: Active
Mus musculus [5]
  Activity: Active
Mus musculus [6]
  Activity: Active
Mus musculus [7]
  Activity: 1.09 mmol/L
Mus musculus [8]
  Activity: 2.21 mmol/L
Mus musculus [9]
  Activity: 1.2 mmol/L
Mus musculus [10]
  Activity: 3.8 mmol/L
Mus musculus [11]
  Activity: 1.39 mmol/L
Mus musculus [12]
  Activity: 1.65 mmol/L
Mus musculus [13]
  Activity: 0.82 mmol/L
Mus musculus [14]
  Activity: Active
Mus musculus [15]
  Activity: Active
Mus musculus [16]
  Activity: Active
Mus musculus [17]
  Activity: Active
Mus musculus [18]
  Activity: Non-Toxic
Mus musculus [19]
  Activity: Active
Mus musculus [20]
  Activity: Active
Mus musculus [21]
  Activity: Active
Mus musculus [22]
  Activity: Active
Mus musculus [23]
  Activity: Active
Mus musculus [24]
  Activity: Active
Mus musculus [25]
  Activity: Active
Mus musculus [26]
  Activity: 8.61 IU/L
Mus musculus [27]
  Activity: 86.37 µmol/L
